The source made the active and inactive calls. The rule behind the calls is not given here.
Tests used:
[1] = tested on: MOLM-14; test: Potentiation of metformin -induced antileukemic activity against human MOLM-14 cells at 4.3 uM in presence of bone-marrow derived stromal cell-conditioned medium; assay type: functional, cell-based
[2] = tested on: CCRF-CEM; test: Potentiation of sunitinib-induced antileukemic activity against human CCRF-CEM cells at 4.3 uM in presence of bone-marrow derived stromal cell-conditioned medium; assay type: functional, cell-based
[3] = tested on: MOLM-14; test: Potentiation of erlotinib-induced antileukemic activity against human MOLM-14 cells at 4.3 uM in presence of bone-marrow derived stromal cell-conditioned medium; assay type: functional, cell-based
[4] = tested on: MOLM-14; test: Potentiation of everolimus-induced antileukemic activity against human MOLM-14 cells at 4.3 uM in presence of bone-marrow derived stromal cell-conditioned medium; assay type: functional, cell-based
[5] = molecular target: T1, E3 ubiquitin-protein ligase TRIM33 (Homo sapiens) (UniProt Q9UPN9); test: Binding affinity to partial length human TRIM33 (D882 to A1087 residues) expressed in bacterial system at 1 uM by BROMOscan method relative to control
T1 sequence (whole entry): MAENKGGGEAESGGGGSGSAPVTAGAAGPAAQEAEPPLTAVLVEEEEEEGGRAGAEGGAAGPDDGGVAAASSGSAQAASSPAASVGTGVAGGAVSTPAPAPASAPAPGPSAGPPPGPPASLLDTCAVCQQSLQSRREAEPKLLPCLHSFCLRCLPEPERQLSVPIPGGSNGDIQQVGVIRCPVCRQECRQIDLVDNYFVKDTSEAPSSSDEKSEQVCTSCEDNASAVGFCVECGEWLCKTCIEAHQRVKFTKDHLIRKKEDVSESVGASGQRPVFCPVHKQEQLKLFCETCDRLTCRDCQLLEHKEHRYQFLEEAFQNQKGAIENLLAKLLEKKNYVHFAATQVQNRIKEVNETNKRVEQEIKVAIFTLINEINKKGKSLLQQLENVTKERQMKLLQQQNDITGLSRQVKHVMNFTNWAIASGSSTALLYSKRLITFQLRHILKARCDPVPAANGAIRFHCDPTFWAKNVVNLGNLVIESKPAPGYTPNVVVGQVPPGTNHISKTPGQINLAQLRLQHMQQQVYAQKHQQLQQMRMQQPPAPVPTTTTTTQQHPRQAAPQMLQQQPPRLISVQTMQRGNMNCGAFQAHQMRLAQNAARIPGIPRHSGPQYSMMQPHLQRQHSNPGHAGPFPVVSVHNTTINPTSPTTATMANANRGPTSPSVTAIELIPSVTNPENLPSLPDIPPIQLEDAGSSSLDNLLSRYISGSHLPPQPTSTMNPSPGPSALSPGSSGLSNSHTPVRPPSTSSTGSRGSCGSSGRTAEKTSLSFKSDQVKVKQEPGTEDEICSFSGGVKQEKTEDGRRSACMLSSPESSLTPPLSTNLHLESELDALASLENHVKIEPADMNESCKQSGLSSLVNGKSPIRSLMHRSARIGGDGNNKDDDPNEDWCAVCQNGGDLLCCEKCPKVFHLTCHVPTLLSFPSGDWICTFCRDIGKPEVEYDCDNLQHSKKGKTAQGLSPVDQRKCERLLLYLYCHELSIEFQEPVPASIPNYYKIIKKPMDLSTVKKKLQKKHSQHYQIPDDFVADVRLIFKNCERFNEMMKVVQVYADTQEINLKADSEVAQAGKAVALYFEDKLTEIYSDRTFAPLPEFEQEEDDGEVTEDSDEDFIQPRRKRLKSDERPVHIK

[6] = tested on: MOLM-14; test: Potentiation of luminespid-induced antileukemic activity against human MOLM-14 cells at 4.3 uM in presence of bone-marrow derived stromal cell-conditioned medium; assay type: functional, cell-based
[7] = tested on: U-937; test: Potentiation of seliciclib-induced antileukemic activity against human U-937 cells at 4.3 uM in presence of bone-marrow derived stromal cell-conditioned medium; assay type: functional, cell-based
[8] = tested on: MOLM-14; test: cells; conditions: Homo sapiens, MOLM-14, 72 h
Description: Cytotoxicity against human MOLM-14 cells assessed as reduction in cell viability incubated for 72 hrs

[9] = tested on: U-937; test: Potentiation of GSK2879552-induced antileukemic activity against human U-937 cells at 4.3 uM in presence of bone-marrow derived stromal cell-conditioned medium; assay type: functional, cell-based
[10] = molecular target: Bromodomain-containing protein 4 (Homo sapiens, UniProt O60885); test: Inhibition of BRD4-BD2 (unknown origin) incubated for 6 hrs by HTRF method
[11] = tested on: CCRF-CEM; test: Potentiation of bosutinib-induced antileukemic activity against human CCRF-CEM cells at 4.3 uM in presence of bone-marrow derived stromal cell-conditioned medium; assay type: functional, cell-based
[12] = tested on: U-937; test: Potentiation of azacitidine-induced antileukemic activity against human U-937 at 4.3 uM in presence of bone-marrow derived stromal cell-conditioned medium; assay type: functional, cell-based
[13] = tested on: MOLM-14; test: Potentiation of EPZ5676-induced antileukemic activity against human MOLM-14 cells at 4.3 uM in presence of bone-marrow derived stromal cell-conditioned medium; assay type: functional, cell-based
[14] = tested on: U-937; test: Potentiation of cyclopamine-induced antileukemic activity against human U-937 cells at 4.3 uM in presence of bone-marrow derived stromal cell-conditioned medium; assay type: functional, cell-based
[15] = tested on: MOLM-14; test: Potentiation of asparaginase-induced antileukemic activity against human MOLM-14 cells at 4.3 uM in presence of bone-marrow derived stromal cell-conditioned medium; assay type: functional, cell-based
[16] = tested on: CCRF-CEM; test: Potentiation of idelalisib-induced antileukemic activity against human CCRF-CEM cells at 4.3 uM in presence of bone-marrow derived stromal cell-conditioned medium; assay type: functional, cell-based
[17] = molecular target: Bromodomain-containing protein 2 (Homo sapiens, UniProt P25440); test: Inhibition of BRD2-BD2 (unknown origin) incubated for 6 hrs by HTRF method
Bromodomain-containing protein 2, sequence (P25440 whole entry): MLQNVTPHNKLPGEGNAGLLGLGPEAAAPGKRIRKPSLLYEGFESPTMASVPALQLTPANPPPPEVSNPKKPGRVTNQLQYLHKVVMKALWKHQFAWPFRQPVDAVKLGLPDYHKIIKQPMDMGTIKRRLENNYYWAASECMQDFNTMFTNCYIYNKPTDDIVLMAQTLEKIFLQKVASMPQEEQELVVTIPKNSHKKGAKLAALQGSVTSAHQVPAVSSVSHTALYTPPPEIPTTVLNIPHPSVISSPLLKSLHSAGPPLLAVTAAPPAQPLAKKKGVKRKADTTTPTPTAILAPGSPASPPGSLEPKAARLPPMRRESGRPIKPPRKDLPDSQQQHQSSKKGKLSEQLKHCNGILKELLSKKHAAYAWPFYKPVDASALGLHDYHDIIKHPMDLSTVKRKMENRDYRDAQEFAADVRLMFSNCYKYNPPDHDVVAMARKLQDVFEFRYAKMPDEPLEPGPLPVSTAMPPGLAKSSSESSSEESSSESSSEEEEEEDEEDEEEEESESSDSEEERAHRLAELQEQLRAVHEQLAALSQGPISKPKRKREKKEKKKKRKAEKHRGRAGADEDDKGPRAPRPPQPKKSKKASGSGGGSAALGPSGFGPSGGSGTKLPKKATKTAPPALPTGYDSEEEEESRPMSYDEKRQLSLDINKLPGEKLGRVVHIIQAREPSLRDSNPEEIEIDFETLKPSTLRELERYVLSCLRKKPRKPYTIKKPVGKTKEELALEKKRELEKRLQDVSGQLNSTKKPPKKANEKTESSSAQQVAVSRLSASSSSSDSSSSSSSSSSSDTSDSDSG

[18] = tested on: U-937; test: Potentiation of sunitinib-induced antileukemic activity against human U-937 cells at 4.3 uM in presence of bone-marrow derived stromal cell-conditioned medium; assay type: functional, cell-based
[19] = tested on: U-937; test: Potentiation of SGI-1776-induced antileukemic activity against human U-937 cells at 4.3 uM in presence of bone-marrow derived stromal cell-conditioned medium; assay type: functional, cell-based
[20] = tested on: CCRF-CEM; test: Potentiation of dasatinib-induced antileukemic activity against human CCRF-CEM cells at 4.3 uM in presence of bone-marrow derived stromal cell-conditioned medium; assay type: functional, cell-based
[21] = tested on: U-937; test: Potentiation of AGI-5198-induced antileukemic activity against human U-937 cells at 4.3 uM in presence of bone-marrow derived stromal cell-conditioned medium; assay type: functional, cell-based
[22] = tested on: U-937; test: Potentiation of dexamethasone-induced antileukemic activity against human U-937 cells at 4.3 uM in presence of bone-marrow derived stromal cell-conditioned medium; assay type: functional, cell-based
[23] = tested on: Acute myeloid leukemic cell; test: Potentiation of birinapant-induced antileukemic activity against patient derived mouse xenografted acute myeloid leukemic cells assessed as cell viability in absence of bone-marrow derived stromal cell-conditioned medium measured after 72 to 144 hrs by cell-titre glo luminescent assay; assay type: functional, cell-based; conditions: Homo sapiens, dose microM <=10, time lower […], time upper 144.0 hrs
[24] = molecular target: Bromodomain-containing protein 3 (Homo sapiens, UniProt Q15059); test: Inhibition of BRD3-BD1 domain (unknown origin) incubated for 6 hrs by HTRF method
Bromodomain-containing protein 3, sequence (Q15059 whole entry, the tested form may be a part): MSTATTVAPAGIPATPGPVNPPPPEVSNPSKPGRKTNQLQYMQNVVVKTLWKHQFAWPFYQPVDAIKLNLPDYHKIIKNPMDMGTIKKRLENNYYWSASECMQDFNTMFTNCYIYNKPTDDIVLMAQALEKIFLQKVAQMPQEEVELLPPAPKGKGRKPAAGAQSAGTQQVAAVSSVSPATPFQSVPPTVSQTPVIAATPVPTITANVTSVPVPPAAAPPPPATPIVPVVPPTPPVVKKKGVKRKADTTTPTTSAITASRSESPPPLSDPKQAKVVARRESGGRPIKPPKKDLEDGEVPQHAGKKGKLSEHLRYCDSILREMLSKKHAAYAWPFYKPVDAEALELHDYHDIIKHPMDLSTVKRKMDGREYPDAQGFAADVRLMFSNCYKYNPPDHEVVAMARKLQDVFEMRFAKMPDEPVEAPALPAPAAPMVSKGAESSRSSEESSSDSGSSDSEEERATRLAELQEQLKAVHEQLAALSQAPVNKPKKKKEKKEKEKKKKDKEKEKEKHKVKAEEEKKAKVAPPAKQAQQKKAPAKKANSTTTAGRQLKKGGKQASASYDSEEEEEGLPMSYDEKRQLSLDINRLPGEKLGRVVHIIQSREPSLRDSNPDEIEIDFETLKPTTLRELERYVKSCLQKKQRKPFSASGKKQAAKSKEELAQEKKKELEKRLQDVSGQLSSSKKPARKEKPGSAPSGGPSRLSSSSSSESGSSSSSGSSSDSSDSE

[25] = tested on: U-937; test: Potentiation of prima1-induced antileukemic activity against human U-937 cells at 4.3 uM in presence of bone-marrow derived stromal cell-conditioned medium; assay type: functional, cell-based
[26] = tested on: CCRF-CEM; test: Potentiation of entinostat-induced antileukemic activity against human CCRF-CEM cells at 4.3 uM in presence of bone-marrow derived stromal cell-conditioned medium; assay type: functional, cell-based

SMILES: CC(=O)N1CCc2c(sc3nc(SCC(=O)Nc4cccnc4C)n(Cc4ccco4)c(=O)c23)C1
- Activity [1]: inactive
- Activity [2]: inactive
- Activity [3]: inactive
- Activity [4]: inactive
- Activity [5]: 52%
- Activity [6]: inactive
- Activity [7]: inactive
- EC50 [8]: 8.5 µM
- Activity [9]: inactive
- IC50 [10]: 0.13 µM
- Activity [11]: inactive
- Activity [12]: inactive
- Activity [13]: inactive
- Activity [14]: inactive
- Activity [15]: inactive
- Activity [16]: inactive
- IC50 [17]: 0.071 µM
- Activity [18]: inactive
- Activity [19]: inactive
- Activity [20]: inactive
- Activity [21]: inactive
- Activity [22]: inactive
- Activity [23]: Dose-Dependent Effect
- IC50 [24]: 9.5 µM
- Activity [25]: inactive
- Activity [26]: inactive
